PubChem BioAssay AID248 (DTP/NCI, 2004)
Values joined by “and” are separate entries in the source; they are usually repeats but may differ in a detail not shown here. Equal entries are not always repeated. Inconclusive results and toxic doses are left out. Rule as the data show it: active = T/C of 150% or more; inactive = T/C below 125%.

Tested on: L1210 leukemia ip in BDF1 mice, survival T/C
Test: NCI In Vivo Anticancer Drug Screen. Data for tumor model L1210 Leukemia (intraperitoneal) in B6D2F1 (BDF1) mice
Details: endpoint: mean survival time, higher = longer survival
Summary of the method: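 Transplantable tumor model; survival measured in treated vs vehicle control mice. Value = treated/control.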

[1] = dose: 100.0 mg/kg/injection, schedule: Q04DX002 (ip), vehicle: Klucel (hydroxypropylcellulose) (HPC)
[2] = dose: 200.0 mg/kg/injection, schedule: Q04DX002 (ip), vehicle: Klucel (hydroxypropylcellulose) (HPC)
[3] = dose: 400.0 mg/kg/injection, schedule: Q04DX002 (ip), vehicle: Klucel (hydroxypropylcellulose) (HPC)
[4] = dose: 100.0 mg/kg/injection, schedule: Q01DX009 (ip), vehicle: Klucel (hydroxypropylcellulose) (HPC)
[5] = dose: 100.0 mg/kg/injection, schedule: Q04DX003 (ip), vehicle: Klucel (hydroxypropylcellulose) (HPC)
[6] = dose: 200.0 mg/kg/injection, schedule: Q01DX009 (ip), vehicle: Klucel (hydroxypropylcellulose) (HPC)
[7] = dose: 200.0 mg/kg/injection, schedule: Q04DX003 (ip), vehicle: Klucel (hydroxypropylcellulose) (HPC)
[8] = dose: 400.0 mg/kg/injection, schedule: Q01DX009 (ip), vehicle: Klucel (hydroxypropylcellulose) (HPC)
[9] = dose: 400.0 mg/kg/injection, schedule: Q04DX003 (ip), vehicle: Klucel (hydroxypropylcellulose) (HPC)
[10] = dose: 100.0 mg/kg/injection, schedule: Q01DX001 (ip), vehicle: saline
[11] = dose: 200.0 mg/kg/injection, schedule: Q01DX001 (ip), vehicle: saline
[12] = dose: 100.0 mg/kg/injection, schedule: Q01DX001 (ip), vehicle: Klucel (hydroxypropylcellulose) (HPC)
[13] = dose: 200.0 mg/kg/injection, schedule: Q01DX001 (ip), vehicle: Klucel (hydroxypropylcellulose) (HPC)
[14] = dose: 400.0 mg/kg/injection, schedule: Q01DX001 (ip), vehicle: Klucel (hydroxypropylcellulose) (HPC)
[15] = dose: 25.0 mg/kg/injection, schedule: Q01DX009 (ip), vehicle: saline with Tween-80
[16] = dose: 50.0 mg/kg/injection, schedule: Q01DX009 (ip), vehicle: saline with Tween-80
[17] = dose: 100.0 mg/kg/injection, schedule: Q01DX009 (ip), vehicle: saline with Tween-80
[18] = dose: 200.0 mg/kg/injection, schedule: Q01DX009 (ip), vehicle: saline with Tween-80
[19] = dose: 100.0 mg/kg/injection, schedule: Q01DX001 (ip), vehicle: other

Measured: T/C

CC(C)c1nc2c(n1Cc1ccccc1)C=C(C(=O)c1ccccc1)S(=O)(=O)C(C(=O)c1ccccc1)=C2
inactive: dose: 25.0 mg/kg/injection, schedule: Q04DX003 (ip), vehicle: saline with Tween-80 107 % of control and 86 % of control | dose: 50.0 mg/kg/injection, schedule: Q01DX001 (ip), vehicle: saline with Tween-80 93 % of control and 104 % of control | dose: 50.0 mg/kg/injection, schedule: Q04DX002 (ip), vehicle: Klucel (hydroxypropylcellulose) (HPC) 106 % of control | dose: 50.0 mg/kg/injection, schedule: Q04DX002 (ip), vehicle: saline with Tween-80 104 % of control and 105 % of control | dose: 100.0 mg/kg/injection, schedule: Q01DX001 (ip), vehicle: saline with Tween-80 93 % of control and 89 % of control | [1] 110 % of control | dose: 200.0 mg/kg/injection, schedule: Q01DX001 (ip), vehicle: saline with Tween-80 100 % of control and 91 % of control | [2] 93 % of control and 103 % of control | dose: 200.0 mg/kg/injection, schedule: Q04DX003 (ip), vehicle: saline with Tween-80 96 % of control and 89 % of control | [3] 93 % of control | dose: 400.0 mg/kg/injection, schedule: Q04DX002 (ip), vehicle: saline with Tween-80 93 % of control and 89 % of control

COc1ccccc1NC(=O)Nc1ccccc1F
inactive: [4] 100 % of control | [5] 89 % of control | [6] 105 % of control | [7] 89 % of control | [8] 97 % of control | [9] 97 % of control

Cc1ncc2c(n1)NC(c1ccc(Cl)cc1)=NC2
inactive: dose: 75.0 mg/kg/injection, schedule: Q01DX001 (ip), vehicle: other 91 % of control | dose: 150.0 mg/kg/injection, schedule: Q01DX001 (ip), vehicle: other 100 % of control | dose: 300.0 mg/kg/injection, schedule: Q01DX001 (ip), vehicle: other 96 % of control

NC(=S)N/N=C\c1ccc(/C=N/NC(N)=S)cc1
inactive: dose: 50.0 mg/kg/injection, schedule: Q01DX001 (ip), vehicle: saline 90 % of control | [10] 93 % of control | [11] 90 % of control

O=C(CC(O)(C(F)(F)F)C(F)(F)F)c1cccc2ccccc12
inactive: [5] 97 % of control | [7] 90 % of control | [9] 90 % of control

COc1ccc2nc(NC(=O)NCCCl)sc2c1
inactive: [12] 90 % of control | [13] 95 % of control | [14] 91 % of control

Cc1c(N=CN(C)C)c(=O)n(-c2ccccc2)n1C
inactive: [4] 94 % of control | [5] 110 % of control | [6] 93 % of control | [7] 105 % of control | [8] 100 % of control | [9] 107 % of control

Cc1ccc(C(C)C)c2cc(C=O)c(O)cc12
inactive: dose: 100.0 mg/kg/injection, schedule: Q01DX001 (sc), vehicle: olive oil, sesame oil, peanut oil 95 % of control | dose: 200.0 mg/kg/injection, schedule: Q01DX001 (sc), vehicle: olive oil, sesame oil, peanut oil 109 % of control | dose: 400.0 mg/kg/injection, schedule: Q01DX001 (sc), vehicle: olive oil, sesame oil, peanut oil 101 % of control

Cc1cc(C)c2c(c1)C/C2=N\O
inactive: [1] 106 % of control | [2] 106 % of control | [3] 103 % of control

NC(CCl)=NCCN1CCNC1=O
inactive: dose: 100.0 mg/kg/injection, schedule: Q04DX002 (ip), vehicle: saline 107 % of control | dose: 200.0 mg/kg/injection, schedule: Q04DX002 (ip), vehicle: saline 104 % of control | dose: 400.0 mg/kg/injection, schedule: Q04DX002 (ip), vehicle: saline 96 % of control

Cc1ccc(S(=O)(=O)On2cccc2C#N)cc1
inactive: [15] 102 % of control | [16] 94 % of control and 96 % of control | [17] 98 % of control | [18] 97 % of control and 102 % of control

CN(C)c1ccc(C=O)c(F)c1
inactive: [4] 96 % of control | [6] 100 % of control | [8] 110 % of control

CCOc1ccn(C2OC(CO)C(OC3OC(COC(C)=O)C(OC(C)=O)C(OC(C)=O)C3OC(C)=O)C(OC(C)=O)C2OC(C)=O)c(=O)n1 (stereo unspecified)
inactive: dose: 22.5 mg/kg/injection, schedule: Q01DX001 (ip), vehicle: carboxymethylcellulose (CMC) 100 % of control | dose: 45.0 mg/kg/injection, schedule: Q01DX001 (ip), vehicle: carboxymethylcellulose (CMC) 103 % of control | dose: 90.0 mg/kg/injection, schedule: Q01DX001 (ip), vehicle: carboxymethylcellulose (CMC) 97 % of control | dose: 180.0 mg/kg/injection, schedule: Q01DX001 (ip), vehicle: carboxymethylcellulose (CMC) 100 % of control

Cc1ccc(C)c(NC(=O)NCc2ccccc2Cl)c1
inactive: [4] 103 % of control | [5] 104 % of control | [6] 101 % of control | [7] 98 % of control | [8] 93 % of control | [9] 89 % of control

O=C(CCCN1CC=C(c2ccccc2)CC1)c1ccc(N2CCC(O)(c3ccc(Cl)cc3)CC2)cc1
inactive: [12] 89 % of control | [13] 95 % of control | [14] 92 % of control

COc1c(Cl)c(Cl)c(Cl)c(Cl)c1NC(C)=O
inactive: dose: 100.0 mg/kg/injection, schedule: Q01DX001 (ip), vehicle: acetone 102 % of control | dose: 200.0 mg/kg/injection, schedule: Q01DX001 (ip), vehicle: acetone 100 % of control | dose: 400.0 mg/kg/injection, schedule: Q01DX001 (ip), vehicle: acetone 94 % of control

COC1=NS(=O)(=O)N=C(c2ccc(OC)cc2)O1
inactive: [1] 103 % of control | [2] 100 % of control | [3] 89 % of control

O=C(Nc1cc([N+](=O)[O-])ccc1S(=O)(=O)c1ccc([N+](=O)[O-])cc1NC(=O)c1ccccc1)c1ccccc1
inactive: dose: 75.0 mg/kg/injection, schedule: Q04DX003 (ip), vehicle: saline 92 % of control | [10] 93 % of control | dose: 150.0 mg/kg/injection, schedule: Q04DX003 (ip), vehicle: saline 124 % of control | [11] 94 % of control | dose: 300.0 mg/kg/injection, schedule: Q04DX003 (ip), vehicle: saline 92 % of control | dose: 400.0 mg/kg/injection, schedule: Q01DX001 (ip), vehicle: saline 94 % of control

C1=Nc2c(ncnc2SCc2ccccc2)NN1
inactive: dose: 5.0 mg/kg/injection, schedule: Q01DX001 (ip), vehicle: other 100 % of control | dose: 10.0 mg/kg/injection, schedule: Q01DX001 (ip), vehicle: other 106 % of control | dose: 20.0 mg/kg/injection, schedule: Q01DX001 (ip), vehicle: other 100 % of control | dose: 40.0 mg/kg/injection, schedule: Q01DX001 (ip), vehicle: other 100 % of control | dose: 50.0 mg/kg/injection, schedule: Q01DX001 (ip), vehicle: other 113 % of control | dose: 80.0 mg/kg/injection, schedule: Q01DX001 (ip), vehicle: other 93 % of control | [19] 88 % of control

CCOC(=O)c1ccc(N=Cc2cnc(N)nc2N)cc1
inactive: [19] 93 % of control | dose: 200.0 mg/kg/injection, schedule: Q01DX001 (ip), vehicle: other 87 % of control | dose: 400.0 mg/kg/injection, schedule: Q01DX001 (ip), vehicle: other 93 % of control

Cc1ccc(-c2nn3c(-c4ccccc4)nnc3o2)cc1
inactive: [17] 97 % of control | [18] 94 % of control | dose: 400.0 mg/kg/injection, schedule: Q01DX009 (ip), vehicle: saline with Tween-80 102 % of control

O=[N+]([O-])c1ccc(N=Cc2ccccc2O)cc1.O=[N+]([O-])c1ccc(N=Cc2ccccc2O)cc1.[Cu]
inactive: dose: 12.5 mg/kg/injection, schedule: Q01DX009 (ip), vehicle: saline with Tween-80 100 % of control | [15] 94 % of control | [16] 93 % of control

C=C(Br)CNC1CCC(CCCC)CC1 (stereo unspecified)
inactive: dose: 50.0 mg/kg/injection, schedule: Q04DX003 (ip), vehicle: Klucel (hydroxypropylcellulose) (HPC) 106 % of control | [12] 98 % of control | [5] 102 % of control | [13] 98 % of control | [7] 93 % of control | [14] 98 % of control

CC(c1ccccc1)[As](C)(=O)O (stereo unspecified)
inactive: dose: 25.0 mg/kg/injection, schedule: Q04DX003 (ip), vehicle: saline 102 % of control | dose: 50.0 mg/kg/injection, schedule: Q04DX003 (ip), vehicle: saline 100 % of control | dose: 100.0 mg/kg/injection, schedule: Q04DX003 (ip), vehicle: saline 122 % of control
